Data reported in patent publication US11236147B2, “Methods and compositions for the inhibition of TRPV4” (CHILDREN'S MEDICAL CENTER CORPORATION, priority 2013, dated 2022).
Entries after “also recorded” stand apart in the source; their conditions may differ.

Columns and labels:
TRPV4 [1] = molecular target: T1, TRPV4 (Homo sapiens, UniProt Q9HBA0); experiment: Calcium imaging: calcium influx by chemical stimulation (4α-PDD); type: cell-based
T1 construct: Transient increases in intracellular calcium were detected quickly after force application in HUVE cells treated with control siRNA; endogenous in cells; host or cells: HUVE cells (ATCC) treated with control or CD98 siRNA
T1 sequence (Q9HBA0 whole entry): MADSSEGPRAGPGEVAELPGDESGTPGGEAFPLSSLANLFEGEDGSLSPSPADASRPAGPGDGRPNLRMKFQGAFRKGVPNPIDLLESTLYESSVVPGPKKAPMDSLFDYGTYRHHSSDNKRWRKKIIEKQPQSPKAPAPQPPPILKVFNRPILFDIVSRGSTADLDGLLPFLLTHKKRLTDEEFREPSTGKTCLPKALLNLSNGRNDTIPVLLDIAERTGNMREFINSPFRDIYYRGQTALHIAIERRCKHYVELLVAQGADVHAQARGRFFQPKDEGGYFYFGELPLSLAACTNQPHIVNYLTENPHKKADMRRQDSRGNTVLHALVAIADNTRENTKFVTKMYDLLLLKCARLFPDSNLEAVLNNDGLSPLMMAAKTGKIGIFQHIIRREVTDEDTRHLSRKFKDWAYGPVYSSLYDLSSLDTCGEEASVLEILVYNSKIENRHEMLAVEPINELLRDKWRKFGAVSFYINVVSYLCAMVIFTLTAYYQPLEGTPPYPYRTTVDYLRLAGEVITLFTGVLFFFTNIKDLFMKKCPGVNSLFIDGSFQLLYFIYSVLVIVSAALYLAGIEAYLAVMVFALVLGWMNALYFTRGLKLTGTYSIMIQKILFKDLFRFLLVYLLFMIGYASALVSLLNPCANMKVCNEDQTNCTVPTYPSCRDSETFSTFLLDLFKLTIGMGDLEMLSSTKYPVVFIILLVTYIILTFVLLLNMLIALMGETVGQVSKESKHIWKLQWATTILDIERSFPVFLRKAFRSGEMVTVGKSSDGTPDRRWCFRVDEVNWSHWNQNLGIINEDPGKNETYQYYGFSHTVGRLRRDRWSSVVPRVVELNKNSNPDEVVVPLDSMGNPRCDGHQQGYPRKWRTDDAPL
Method: (§1) FIG. 6A depicts a graph of the relative change in cytosolic calcium in response to static stretch (20%, 4 second arrow) in Fluo-4-loaded CE cells treated with control or CD98 siRNA. FIG. 6B depicts a graph of the average relative increases in cytosolic calcium induced by mechanical strain in HUVE cells treated with control or CD98 siRNA. FIG. 6C depicts a graph of the relative change in cytosolic calcium in response to 4α-PDD (10 μM) in Fluo-4-loaded CE cells treated with control or CD98 siRNA. FIG. 6D depicts a graph of the average relative increases in cytosolic calcium induced by chemical strain in HUVE cells treated with control or CD98 siRNA.
(§2) Specific inhibition of mechanical activation of TRPV4 activity. Moreover, TRPV4 is specifically activated by mechanical strain (12). To examine whether CD98 transducse the signal by mechanical stimulation through TRPV4, the calcium influx by mechanical stimulation was investigated. Transient increases in intracellular calcium were detected quickly after force application in HUVE cells treated with control siRNA. […] TRPV4 is also activated by chemical stimulation such as 4α-phorbol 12, 13-didecanoate (4α-PDD).
(§3) Mechanical strain application, measurement of cell orientation, Calcium Imaging were performed as described (Thodeti et al., 2009)

TRPV4 [2] = molecular target: T2, TRPV4 (Canis lupus familiaris, UniProt A0A8I3PAV3); conditions: dog; cited from earlier work
T2 construct: host or cells: dog, in vivo
T2 sequence (A0A8I3PAV3 1-828): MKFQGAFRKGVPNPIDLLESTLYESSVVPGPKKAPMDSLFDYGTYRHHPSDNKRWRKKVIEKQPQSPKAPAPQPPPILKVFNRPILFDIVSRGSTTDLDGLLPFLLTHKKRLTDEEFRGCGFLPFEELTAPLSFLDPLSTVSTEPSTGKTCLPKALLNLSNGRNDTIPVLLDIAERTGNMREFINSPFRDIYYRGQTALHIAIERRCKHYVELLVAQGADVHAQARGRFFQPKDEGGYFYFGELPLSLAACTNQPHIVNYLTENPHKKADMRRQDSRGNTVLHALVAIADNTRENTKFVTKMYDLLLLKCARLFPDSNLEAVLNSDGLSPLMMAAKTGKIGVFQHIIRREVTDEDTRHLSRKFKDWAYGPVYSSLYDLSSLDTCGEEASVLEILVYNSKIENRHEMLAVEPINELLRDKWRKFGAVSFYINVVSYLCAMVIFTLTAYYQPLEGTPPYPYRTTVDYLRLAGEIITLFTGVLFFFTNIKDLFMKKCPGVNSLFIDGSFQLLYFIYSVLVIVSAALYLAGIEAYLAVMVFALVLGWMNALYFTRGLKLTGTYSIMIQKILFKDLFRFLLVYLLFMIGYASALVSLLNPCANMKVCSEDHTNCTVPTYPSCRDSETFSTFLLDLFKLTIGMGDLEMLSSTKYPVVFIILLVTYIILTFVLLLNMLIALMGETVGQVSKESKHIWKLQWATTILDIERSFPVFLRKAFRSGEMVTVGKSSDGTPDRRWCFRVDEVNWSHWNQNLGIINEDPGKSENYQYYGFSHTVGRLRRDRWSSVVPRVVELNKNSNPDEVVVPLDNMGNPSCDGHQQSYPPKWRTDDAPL

TRPV4 [3] = molecular target: T3, TRPV4 (Mus musculus, UniProt Q9EPK8); conditions: mice; cited from earlier work
T3 construct: host or cells: mice, in vivo
T3 sequence (Q9EPK8 whole entry): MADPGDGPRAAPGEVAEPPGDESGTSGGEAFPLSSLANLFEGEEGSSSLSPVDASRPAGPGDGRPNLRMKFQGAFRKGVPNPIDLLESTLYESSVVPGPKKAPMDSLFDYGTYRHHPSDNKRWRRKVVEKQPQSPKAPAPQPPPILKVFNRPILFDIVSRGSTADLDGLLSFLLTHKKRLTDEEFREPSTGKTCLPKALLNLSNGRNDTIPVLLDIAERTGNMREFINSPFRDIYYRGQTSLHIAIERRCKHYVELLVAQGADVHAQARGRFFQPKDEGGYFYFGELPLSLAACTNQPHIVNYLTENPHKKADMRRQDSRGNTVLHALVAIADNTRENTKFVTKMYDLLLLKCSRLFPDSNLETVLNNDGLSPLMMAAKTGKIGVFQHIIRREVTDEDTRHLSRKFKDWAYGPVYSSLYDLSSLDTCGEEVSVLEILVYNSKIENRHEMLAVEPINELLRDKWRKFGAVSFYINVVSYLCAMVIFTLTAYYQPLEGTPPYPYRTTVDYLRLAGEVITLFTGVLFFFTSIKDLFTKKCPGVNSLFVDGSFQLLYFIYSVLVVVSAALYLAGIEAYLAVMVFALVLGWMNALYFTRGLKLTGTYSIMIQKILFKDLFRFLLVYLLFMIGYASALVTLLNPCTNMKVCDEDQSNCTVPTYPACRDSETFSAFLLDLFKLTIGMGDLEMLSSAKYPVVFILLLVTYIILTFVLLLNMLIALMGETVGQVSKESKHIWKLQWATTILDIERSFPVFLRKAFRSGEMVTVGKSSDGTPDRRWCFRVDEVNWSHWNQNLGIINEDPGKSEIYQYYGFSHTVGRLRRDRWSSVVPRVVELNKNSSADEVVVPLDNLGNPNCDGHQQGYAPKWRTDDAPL

TRPV4 [4] = molecular target: T1, TRPV4; conditions: human lung-on-a-chip microdevice, IL2-induced; cited from earlier work
TRPV4 [5] = molecular target: T4, TRPV4 (Rattus norvegicus, UniProt Q9ERZ8); conditions: rats; cited from earlier work
T4 construct: host or cells: rats, in vivo
T4 sequence (Q9ERZ8 whole entry): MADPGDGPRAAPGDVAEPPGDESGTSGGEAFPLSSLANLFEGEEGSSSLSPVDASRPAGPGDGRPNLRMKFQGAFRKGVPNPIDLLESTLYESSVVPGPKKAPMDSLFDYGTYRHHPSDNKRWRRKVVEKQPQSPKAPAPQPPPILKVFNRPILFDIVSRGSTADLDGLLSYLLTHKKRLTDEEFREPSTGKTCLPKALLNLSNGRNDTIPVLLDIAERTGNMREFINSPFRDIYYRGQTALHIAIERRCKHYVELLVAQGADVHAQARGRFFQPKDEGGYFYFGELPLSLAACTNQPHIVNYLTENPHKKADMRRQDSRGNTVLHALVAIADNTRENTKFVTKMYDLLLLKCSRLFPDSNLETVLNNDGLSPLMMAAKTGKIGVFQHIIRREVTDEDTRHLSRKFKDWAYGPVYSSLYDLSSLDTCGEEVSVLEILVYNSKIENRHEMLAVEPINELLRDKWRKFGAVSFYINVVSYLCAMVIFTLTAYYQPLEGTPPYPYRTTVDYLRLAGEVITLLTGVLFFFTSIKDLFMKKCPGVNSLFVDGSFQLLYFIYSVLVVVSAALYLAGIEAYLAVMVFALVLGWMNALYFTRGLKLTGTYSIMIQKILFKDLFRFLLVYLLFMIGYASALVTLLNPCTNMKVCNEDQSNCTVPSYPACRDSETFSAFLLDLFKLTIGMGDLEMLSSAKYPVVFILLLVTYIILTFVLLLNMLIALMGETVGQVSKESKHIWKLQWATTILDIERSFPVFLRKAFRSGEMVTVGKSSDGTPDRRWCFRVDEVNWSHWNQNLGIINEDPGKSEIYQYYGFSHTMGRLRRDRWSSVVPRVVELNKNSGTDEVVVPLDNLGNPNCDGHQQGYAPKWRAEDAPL

HUVE cells [6] = experiment: Scratch wound cell migration assay; type: cell-based, human; conditions: monolayer HUVE cells, CD98 siRNA vs control siRNA
Excerpt: (§4) CD98 mediates the binding between TRPV4 and β1-integrin at focal adhesion. The question is what the molecular mechanism is by which CD98 mediates the signaling from β1-integrin to TRPV4. CD98 is important for surface expression and clustering of β1-integrin in MCF7 cells (11). Therefore, it was examined whether CD98 mediates the binding between β1-integrin and TRPV4 using siRNA-based knockdown of CD98. […] Thus, CD98 deficiency doesn't affect the formation of focal adhesion.
It was next asked whether CD98 serves to link β1-integrin to TRPV4. […] Thus, CD98 is not required for focal adhesion formation or function. […] Although TRPV4 expression was not decreased, TRPV4 couldn't localize at focal adhesions (data not shown).

HUVE cells [7] = experiment: Actin rearrangement / cell orientation after 20% uniaxial cyclic strain; type: cell-based, human
Method: (§5) CD98 involves actin rearrangement on mechanotransduction. To confirm that CD98 translates the mechanical signal from β1-integrin to TRPV4 by mediating the binding, it was examined whether CD98 is required for the actin arrangement induced by cyclic strain. To analyze it, HUVE cells were cultured on flexible fibronectin-coated substrates and subjected to 20% uniaxial cyclic strain using a FlexrCell™ Tension Plus system. […] In contrast, this response was abolished by the treatment with CD98 siRNA (FIG. 5).
as §3
as §5, with “To” for “CD98 involves actin rearrangement on mechanotransduction. To”, “FlexrCell” for “FlexrCell™”, “Plus™” for “Plus”

HUVE cells [8] = experiment: Localization of TRPV4, CD98, integrin and vinculin at focal adhesions (TIRF / immunofluorescence); type: cell-based, human; conditions: CD98 siRNA
Excerpt: TRPV4 associates with CD98 and β1-integrin at focal adhesion. The terminal 6 amino acid residues at the carboxy end of the β1-integrin cytoplasmic mediate calcium signaling and are required for rapid force induced TRPV4-mediated calcium signaling (10). It was postulated that CD98, which binds to the last 6 carboxy terminal amino acids of β1-integrin, is involved in the TRPV4 activation by β1-integrin using genetically engineered mutant integrin constructs. First, it was confirmed that CD98 binds to integrins through the region of the β1-integrin tail using β1-integrin mutant constructs to transfect HEK293T cells followed by an immunoprecipitation assay. It was also confirmed that TRPV4 also interacts with the same region of β1-integrin using the same β1-integrin mutant constructs (data not shown). To explore the binding between those molecules, whether CD98 and β1-integrin can be co-precipitated from HUVE cell lysates using anti-TRPV4 antibody was determined (FIG. 1A). TRPV4 similarly precipitates with either anti-β1-integrin or anti-CD98 antibody (FIG. 1B). Moreover, it was confirmed that TRPV4 overlapped with CD98 at vinculin positive focal adhesions by Total Internal Reflection Fluorescence (TIRF, data not shown).
siRNA knock down of CD98. RNA interference assay was conducted with human CD98 siRNA duplexes: 5′-[…]-3′ (SEQ ID NO: 21) and 5′-[…]-3′ (SEQ ID NO: 22). […]

TRPV4 [9] = experiment: Calcium imaging: calcium influx by mechanical stimulation; type: cell-based, human; conditions: HUVE cells, CD98 siRNA vs control siRNA, Fluo-4, static stretch 20%
Method: as §1, §2, §3

[10] = test system: binding between β1-integrin and TRPV4; experiment: Immunoprecipitation of TRPV4 / β1-integrin binding in HUVE cells after CD98 siRNA knock down; type: cell-based, human; conditions: CD98 siRNA vs control siRNA, co-immunoprecipitation
Excerpt: (§6) The cells were transfected with control or CD98 siRNA. The amount of each component in the total cell lysates is given in the left panel. In the right lanses the cell lysates were immunoprecipitates with rabbit anti-TRPV4 (upper) or mouse anti-β1-integrin antibody (lower).
as §4
(§7) siRNA knock down of CD98. RNA interference assay was conducted with human CD98 siRNA duplexes: 5′-[…]-3′ (SEQ ID NO: 21) and 5′-[…]-3′ (SEQ ID NO: 22). Cells were transfected with 50 nM of the siRNA duplexes in Opti-MEM™ (Invitrogen) using silentFect Lipid Reagent for RNAi (BIO-RAD), according to the manufacturer's instructions.
Immunoprecipitation. Cells were extracted in ice-cold TRITON™ buffer (50 mM Tris-HCL, pH 7.4, containing 150 mM NaCl, 1% TRITONX100™, 5 mM EDTA). […] Subsequently the beads were isolated by magnet and washed five times with TRITON™ buffer and then were detected by SDS-PAGE and immunoblotting.

TRPV4 [11] = experiment: TRPV4 expression in total cell lysates after CD98 knock down; type: cell-based, human; conditions: HUVE cells, CD98 siRNA
Method: as §6, §7

[12] = molecular target: T5, binding between β1-integrin and TRPV4 (Homo sapiens, UniProt P05556+Q9HBA0); experiment: Immunoprecipitation binding assay in HEK293T cells transfected with HA-linked CD98 high homology domain; type: cell-based; conditions: HEK293T cells, 2.5, 5 μg HA-linked CD98 high homology domain vs HA vector, 24 h
T5 construct: endogenous in cells; host or cells: HEK293T cells (ATCC); only the HA-CD98 high homology domain is transfected
T5 sequence (Q9HBA0 whole entry, the tested form may be a part): as the sequence (Q9HBA0 whole entry) above
T5 sequence (P05556 21-798): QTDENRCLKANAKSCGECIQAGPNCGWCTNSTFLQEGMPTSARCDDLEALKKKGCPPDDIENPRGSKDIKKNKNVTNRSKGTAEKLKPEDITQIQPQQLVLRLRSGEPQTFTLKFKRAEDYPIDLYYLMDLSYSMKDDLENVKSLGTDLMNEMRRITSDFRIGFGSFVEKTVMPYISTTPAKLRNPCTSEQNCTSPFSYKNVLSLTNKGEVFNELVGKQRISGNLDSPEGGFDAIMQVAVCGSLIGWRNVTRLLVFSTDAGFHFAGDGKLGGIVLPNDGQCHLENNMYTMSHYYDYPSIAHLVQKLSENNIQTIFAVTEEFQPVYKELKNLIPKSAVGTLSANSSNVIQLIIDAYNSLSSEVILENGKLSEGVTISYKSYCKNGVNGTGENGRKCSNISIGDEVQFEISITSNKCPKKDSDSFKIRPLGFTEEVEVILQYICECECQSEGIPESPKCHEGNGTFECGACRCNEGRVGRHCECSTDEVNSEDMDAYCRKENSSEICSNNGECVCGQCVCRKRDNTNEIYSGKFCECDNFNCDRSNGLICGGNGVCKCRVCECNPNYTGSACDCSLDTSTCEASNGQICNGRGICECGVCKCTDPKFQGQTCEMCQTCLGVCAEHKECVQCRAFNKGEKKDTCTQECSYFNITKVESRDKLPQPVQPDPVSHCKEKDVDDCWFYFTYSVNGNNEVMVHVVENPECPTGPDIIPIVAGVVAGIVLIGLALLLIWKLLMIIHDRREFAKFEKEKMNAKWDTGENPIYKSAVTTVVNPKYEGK
Method: 2.5, 5 μg HA-linked CD98 high homology domain or 5 μg HA vector was transfected into HEK293T cells, and the binding assay was performed 24 h later. The bottom panel gives the amount of each transgene in total cell lysates of respective transfectants. In the top or the 3rd panel, the lysates were immunoprecipitated with an anti-β1-integrin or TRPV4 antibody, and the amount of TRPV4 or β1-integrin in the precipitates was blotted with each antibodies. The 2nd or the 4th panel gives the amount of β1-integrin or TRPV4 in total cell lysates.
Immunoprecipitation. Cells were extracted in ice-cold TRITON™ buffer (50 mM Tris-HCL, pH 7.4, containing 150 mM NaCl, 1% TRITONX100™, 5 mM EDTA). Cell extracts were centrifuged at 10000 g for 15 min at 4° C. prior to being immunoprecipitated with each antibodies and DYNABEADS™ Magnetic Beads (Invitrogen) at 4° C. Subsequently the beads were isolated by magnet and washed five times with TRITON™ buffer and then were detected by SDS-PAGE and immunoblotting.
As described above, high homology domain of CD98 is important for the binging to either β1-integrin or TRPV4. […] Therefore, CD98 mediates the binding between β1-integrin and TRPV4 at focal adhesion through high homology domain of CD98.

Compound: CCCCCCCCCC(=O)O[C@@H]1[C@@H](C)[C@@]2(O)[C@@H](C=C(CO)C[C@@]3(O)C(=O)C(C)=C[C@@H]23)[C@@H]2C(C)(C)[C@]12OC(=O)CCCCCCCCC [4α-PDD, 4α-phorbol 12, 13-didecanoate]
- intracellular calcium in response to 4α-PDD (TRPV4 [1]; HUVE cells treated with either control or CD98 siRNA, 4α-PDD 10 μM): rapid increase in intracellular calcium

Compound: O=C(NC1(c2ccccc2)CC1)c1c(CN2CCC(N3CCCCC3)CC2)c(-c2cccc(C(F)(F)F)c2)nc2cc(Br)ccc12 [GSK2193874]
- cardiogenic pulmonary edema (TRPV4 [2]): prevents cardiogenic pulmonary edema
- cardiogenic pulmonary edema (TRPV4 [3]): prevents cardiogenic pulmonary edema
- pulmonary vascular leakage and lung edema development (TRPV4 [4]): prevent pulmonary vascular leakage and lung edema development
- cardiogenic pulmonary edema (TRPV4 [5]): prevents cardiogenic pulmonary edema

Compound: CD98 siRNA: human CD98 siRNA duplexes: 5′-GAAUGGUCUGGUGAAGAUC-3′ (SEQ ID NO: 21) and 5′-GAUCUUCACCAGACCAUUC-3′ (SEQ ID NO: 22) (listed as RNA, chemistry not given here; listed as Homo sapiens)
- cell migration in scratch wound assay (HUVE cells [6]): normally restored; also recorded: did not interfere with cell migration
- calcium influx of TRPV4 activation by chemical treatment (TRPV4 [1]; HUVE cells, CD98 siRNA vs control siRNA): not inhibited; also recorded: not by chemical activators
- stress fiber realignment (actin rearrangement) induced by cyclic strain (HUVE cells [7]; HUVE cells, CD98 siRNA vs control siRNA, 20% uniaxial cyclic strain, 2 hours): inhibited; also recorded: abolished
- TRPV4 localization at focal adhesions (HUVE cells [8]): can't localize at focal adhesion; also recorded: loss of TRPV4 from focal adhesions; also recorded: prevented; also recorded: greatly reduced the amount of both CD98 and TRPV4 within focal adhesions
- recruitment of integrins or vinculin to focal adhesions (HUVE cells [8]): no effect
- transient increase in intracellular calcium after force application (mechanical activation of TRPV4) (TRPV4 [9]): inhibited; also recorded: didn't show this response; also recorded: inhibits calcium influx
- association (binding) of TRPV4 and β1-integrin [10]: can't bind to β1-integrin; also recorded: decreased association of TRPV4 and β1-integrin; also recorded: greatly reduced the amount of the binding between β1-integrin and TRPV4
- TRPV4 expression (TRPV4 [11]): not decreased

Compound: high homology domain of CD98: domain of CD98 having the sequence of SEQ ID NO: 1; N-terminal region highly conserved from Drosophila to mammals (KFTGLSKEELLKVAGSPGWVRTRWALLLLFWLGWLGMLAGAVVIIVRAPRC)
- actin rearrangements after mechanical strain (HUVE cells [7]; HUVE cells overexpressing high homology domain of CD98 vs vector): didn't show actin rearrangements
- β1-integrin binding to TRPV4 [12]: decreased
- β1-integrin binding to TRPV4 ([12]; listed as high homology domain): inhibited
